Reference: ChEMBL document CHEMBL1201862, “PubChem BioAssay data set” (2004)
Active and inactive are the calls of the source.

How the values were obtained:
Nonstructural protein 1 = Nonstructural protein 1 (Influenza A virus, UniProt Q194T2); type: functional, Influenza A virus (A/California/07/2009(H1N1))
[1] = target: T1, High affinity choline transporter 1 (Homo sapiens, UniProt Q9GZV3); assay: CHT inhibitors, dose response, cell-based, 5-point CRC, membrane potential dye (AID 504840); type: functional
T1 sequence (Q9GZV3 whole entry): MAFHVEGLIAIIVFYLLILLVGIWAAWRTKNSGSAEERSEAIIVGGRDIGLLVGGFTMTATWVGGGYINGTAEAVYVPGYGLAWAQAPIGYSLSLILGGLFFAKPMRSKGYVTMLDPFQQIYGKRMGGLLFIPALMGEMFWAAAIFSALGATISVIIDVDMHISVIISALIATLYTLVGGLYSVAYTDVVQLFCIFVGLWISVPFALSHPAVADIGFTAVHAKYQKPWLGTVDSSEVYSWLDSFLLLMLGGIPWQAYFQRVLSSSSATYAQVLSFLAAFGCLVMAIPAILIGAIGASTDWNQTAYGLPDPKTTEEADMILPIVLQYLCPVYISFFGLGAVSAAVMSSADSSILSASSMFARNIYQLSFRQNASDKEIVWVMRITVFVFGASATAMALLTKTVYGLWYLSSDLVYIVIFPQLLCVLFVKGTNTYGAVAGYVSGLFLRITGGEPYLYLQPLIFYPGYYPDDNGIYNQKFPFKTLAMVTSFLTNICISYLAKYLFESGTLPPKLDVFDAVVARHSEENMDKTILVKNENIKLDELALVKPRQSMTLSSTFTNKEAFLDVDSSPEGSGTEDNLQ

[2] = inhibitors of intracellular T. cruzi replication, confirmation, NIH3T3 host cells, beta-gal luminescence (AID 2044); type: functional, cell-based;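 note: intracellular parasites grown in NIH/3T3 mouse fibroblasts as host cells; luminescent beta-galactosidase reporter signal from transgenic T. cruzi replicating inside host cells; inhibitors lower the luminescence signal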
[3] = cytotoxicity toward NIH3T3 fibroblasts, dose response, counter-screen, cell-based, ATP luminescence, mouse fibroblasts (AID 2010); type: functional;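 note: cells exposed to compound for about 90 hours before reading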
[4] = THP-1 cell cytotoxicity, dose response, cytotoxicity control for non-replicating M. tuberculosis project (AID 489025); type: functional
cells = type: functional
[5] = target: Heat shock protein HSP 90-alpha (Homo sapiens, UniProt P07900); type: functional, organism-based
P388/ADR = assay: cells; type: functional; conditions: Mus musculus
SN12K1 = assay: cells; type: functional; conditions: Homo sapiens
[6] = A549 cell cytotoxicity, dose response, cytotoxicity control, plate reader, cherry-pick, antagonist series (AID 743412); type: functional, cell-based
[7] = cytotoxicity in HEK-293T cells, dose response, cytotoxicity control for TCR NF-kB inhibitor project, luminescence, T-cell screen hits (AID 489026); type: functional, cell-based;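 note: cells exposed to compound about 14 hours before the viability readout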
Aminopeptidase N = target: T2, Aminopeptidase N (Plasmodium falciparum FcB1/Columbia, UniProt O96935); assay: P. falciparum M1AAP inhibitors, biochemical, fluorogenic H-Leu-NHMec substrate, 1536-well (AID 1445); design: species or system Plasmodium falciparum 3D7, 3D7
T2 sequence (O96935 whole entry): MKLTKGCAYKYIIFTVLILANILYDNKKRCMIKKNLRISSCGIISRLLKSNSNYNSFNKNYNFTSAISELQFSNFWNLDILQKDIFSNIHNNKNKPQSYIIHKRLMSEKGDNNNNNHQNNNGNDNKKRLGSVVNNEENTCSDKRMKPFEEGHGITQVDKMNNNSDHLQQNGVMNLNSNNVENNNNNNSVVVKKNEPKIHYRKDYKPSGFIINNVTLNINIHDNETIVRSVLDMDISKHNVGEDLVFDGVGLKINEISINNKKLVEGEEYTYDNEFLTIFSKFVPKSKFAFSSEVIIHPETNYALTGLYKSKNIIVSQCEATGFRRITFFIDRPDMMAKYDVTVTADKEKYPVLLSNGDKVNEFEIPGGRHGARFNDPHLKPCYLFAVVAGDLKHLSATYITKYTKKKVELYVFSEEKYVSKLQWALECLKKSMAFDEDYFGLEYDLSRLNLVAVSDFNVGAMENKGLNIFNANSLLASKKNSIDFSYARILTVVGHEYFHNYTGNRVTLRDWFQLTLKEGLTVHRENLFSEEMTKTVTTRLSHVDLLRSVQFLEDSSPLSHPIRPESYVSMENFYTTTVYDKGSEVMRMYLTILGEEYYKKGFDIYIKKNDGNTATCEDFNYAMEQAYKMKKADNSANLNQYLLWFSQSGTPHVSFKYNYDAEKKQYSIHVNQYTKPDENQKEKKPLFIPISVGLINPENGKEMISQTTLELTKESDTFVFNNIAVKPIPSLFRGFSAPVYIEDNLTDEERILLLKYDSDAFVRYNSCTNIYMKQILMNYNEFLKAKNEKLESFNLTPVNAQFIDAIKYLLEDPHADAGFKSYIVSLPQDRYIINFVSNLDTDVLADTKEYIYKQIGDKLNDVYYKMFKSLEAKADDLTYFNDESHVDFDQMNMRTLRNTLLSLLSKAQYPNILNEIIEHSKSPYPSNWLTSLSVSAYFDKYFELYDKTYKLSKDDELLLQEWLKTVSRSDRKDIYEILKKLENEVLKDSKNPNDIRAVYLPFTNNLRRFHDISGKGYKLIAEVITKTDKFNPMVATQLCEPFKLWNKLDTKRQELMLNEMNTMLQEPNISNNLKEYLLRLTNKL

BJ [8] = assay: cytotoxicity toward BJ-TERT fibroblasts, dose response, cell-based, RAS-independent, luminescence (AID 1933); type: functional; conditions: Homo sapiens
BJ [9] = assay: cells; type: functional, cell-based; conditions: Homo sapiens
BJ [10] = assay: cytotoxicity toward BJ-TERT-LT-ST fibroblasts, dose response, cell-based, RAS-independent, luminescence (AID 1935); type: functional; conditions: Homo sapiens;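 note: BJ fibroblasts immortalized with TERT plus LT and ST oncogenes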
[11] = cytotoxicity toward DRD oncogenic fibroblasts, dose response, cell-based, non-viral oncogenic, luminescence (AID 1934); type: functional; conditions: Homo sapiens
[12] = Shn3 3'UTR reporter inhibitors, dose response, cell-based, Clone20 osteoblasts, firefly luciferase, cherry-picked (AID 624132); type: functional;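 note: firefly luciferase luminescence from reporter carrying the Shn3 3'UTR in osteoblasts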
[13] = HepG2 cell cytotoxicity, dose response, cytotoxicity control for Shn3 inhibitor project, CellTiter-Glo, cherry-picked (AID 624134); type: functional, cell-based
[14] = control 3'UTR Renilla luciferase suppression, dose response, counter-screen for Shn3 inhibitor project, cell-based, Clone20-Shn3RL, cherry-picked (AID 624133); type: functional

Sequence of Nonstructural protein 1 (Q194T2 whole entry): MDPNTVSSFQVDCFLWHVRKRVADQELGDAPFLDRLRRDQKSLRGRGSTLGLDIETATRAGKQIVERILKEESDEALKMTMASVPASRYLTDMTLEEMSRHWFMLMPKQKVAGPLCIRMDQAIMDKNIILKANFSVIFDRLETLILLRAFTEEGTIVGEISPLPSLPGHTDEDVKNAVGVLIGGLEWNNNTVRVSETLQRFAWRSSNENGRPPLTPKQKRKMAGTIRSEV

Cc1cc(C)n(CC(=O)N/N=C/c2cc([N+](=O)[O-])ccc2O)n1
IC50 (Nonstructural protein 1): 10.8 µM (active)

C=CCN1C(=O)/C(=N\Nc2c(C)n(C)n(-c3ccccc3)c2=O)C(=O)NC1=S
IC50 (Nonstructural protein 1): 2.29 µM (active)

CCc1c(C)nc2ccccc2c1O
IC50 [1]: 13.2 µM (active)

Oc1ccc(C=NNC(=S)Nc2ccc(F)cc2)c(O)c1
IC50 (Nonstructural protein 1): 14.6 µM (active)

Cc1ccc(OCCCCn2ccnc2)c(Cl)c1
EC50 [2]: 1.37 µM (active)
EC50 [3]: > 60 µM (not active)
CC50 [4]: > 40 µM (active)
IC50 (cells): 39.1 µM (active)

COc1cc2cnc(-c3ccccc3)c(C(=O)c3ccc(F)cc3)c2cc1OC
AC50 [5]: 2.12 µM (active)

O=C(O)/C=C/c1c[nH]cn1
GI50 (P388/ADR): > 500 µM (inactive)
GI50 (SN12K1): > 500 µM (inactive)

C[C@H](CO)N1C[C@H](C)[C@H](CN(C)C(=O)CN2CCOCC2)Oc2ncc(C#CCN(C)C)cc2C1=O
AC50 [6]: > 52 µM (inactive)

Cc1ccc(N=C(N)Nc2nc(O)cc(CSc3nnc(C)s3)n2)c(C)c1
IC50 [7]: > 80 µM (inactive)

O=C(O)c1cccc(N2C(=O)c3cccc4c(Cl)ccc(c34)C2=O)c1
IC50 (Aminopeptidase N): 83.3 µM (active)

CC(C)(C)c1nnc(N/N=C/c2ccccc2O)n(N)c1=O
EC50 (BJ [8]): 1.86 µM (active)
EC50 (BJ [9]): 8.53 µM (inconclusive)
EC50 (BJ [10]): 15.1 µM (active)
EC50 [11]: 2.47 µM (active)
IC50 [7]: > 80 µM (inactive)
IC50 (Nonstructural protein 1): 5.93 µM (active)

O=C(c1ccc2c(=O)n(-c3ccccc3)c(=S)[nH]c2c1)N1CCCCC1
AC50 [12]: 1.44 µM (active)
AC50 [13]: 64.2 µM (active)
AC50 [14]: 3.14 µM (active)

CCOC(=O)C1=C(COC(=O)c2ccc(OC(C)C)cc2)NC(=O)NC1C (stereo unspecified)
IC50 [1]: 16.6 µM (active)

Cc1cc([N+](=O)[O-])c(NC2CCCCC2)c([N+](=O)[O-])c1
IC50 (Nonstructural protein 1): 41.5 µM (active)

O=C1C=CC(=O)N1c1ccc2c(c1)Cc1cc(F)ccc1-2
AC50 [5]: < 0.195 µM (active)
